This note sets out measurements from PubChem BioAssay AID504440 (Sanford-Burnham Center for Chemical Genomics, 2011).

What is called IC50 is the concentration that gives 50% inhibition.

This assay deals with AML12 mouse hepatocytes, BODIPY lipid droplet imaging. In words: inhibitors of hepatocyte lipid droplet formation, SAR follow-up, imaging, AML12 mouse hepatocytes, set 2 (AID 504440).

Several values for one entry are separate records, joined by “and”; a condition that tells them apart may be missing. Identical values can stand only once. Activity calls are given as the source filed them.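 The calls were made as follows: active = mean IC50 below 5 µM in the confirmatory dose response test; inactive = the rest.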

For the compound `CCOc1ccc(CCNC(=O)Cn2cccc2C(=O)c2ccccc2C)cc1OCC`, the IC50 is 0.349 µM.
`CCOc1ccc(CCNC(=O)c2cc3sccc3n2CC)cc1OCC`: the IC50 was 0.0399 µM.
Regarding `CCOc1cc(CCNC(=O)c2cc3sccc3[nH]2)ccc1OC`, the IC50 is 2.19 µM.
With `CCOc1ccc(CCNC(=O)c2cc3ccsc3n2C)cc1OCC` the figure was 0.138 µM.
For `CCOc1cc(CCNC(=O)COc2cc(=O)n(C)c3ccccc23)ccc1OC`, the IC50 is 8.93 µM (inactive).
As for `Cn1c(=O)cc(SCC(=O)Nc2ccc3c(c2)OCO3)c2ccccc21`, the IC50 was > 10 µM (inactive).
Take `CCOc1ccc(CCNC(=O)Cn2nc(C)c3c(C)n(-c4ccccc4)nc3c2=O)cc1OCC`: the IC50 was 0.187 µM.
As for `CCOc1ccc(CCNC(=O)CCc2nnc3ccc(N4CCCCC4)nn23)cc1OCC`, the IC50 was 0.199 µM.
For `COc1ccc(CCNC(=O)c2cc3ccccc3n2C)cc1OC`, the IC50 was > 10 µM (inactive).
`CCOc1cc(CCNC(=O)c2ccc(N3CCOCC3)s2)ccc1OC`: the IC50 is 2.34 µM.
For the compound `CCOc1cc(CCNC(=O)c2cc3sccc3n2CC)ccc1OC`, the IC50 was 0.063 µM.
With `CCOc1ccc(CCNC(=O)CCC(=O)N2CCOc3ccc(C)cc32)cc1OCC`, the IC50 is 0.235 µM.
For `CCOc1ccc(CCNC(=O)CSc2cc(=O)n(C)c3ccccc23)cc1OC`, the IC50 is 3.03 µM.
As to `CCn1c(C(=O)Nc2ccc3c(c2)OCO3)cc2ccsc21`, the IC50 is > 10 µM (inactive).
The value for `CCOc1ccc(CCNC(=O)c2cc3ccsc3n2CC)cc1OC` was 0.501 µM; that for `COc1ccc(CCNC(=O)c2cc(-c3ccccc3)c(N3CCOCC3)s2)cc1OC` was 0.271 µM and 0.186 µM.
With `CCOc1cc(CCNC(=O)c2cc3ccccc3n2C)ccc1OC` the figure was 1.04 µM.
With `Cn1c(=O)cc(SCC(=O)NCCc2ccc3c(c2)OCO3)c2ccccc21` the figure was > 10 µM (inactive); with `CCOc1ccc(CCNC(=O)CSc2cc(=O)n(C)c3ccccc23)cc1OCC`, 0.564 µM and 0.526 µM.
Take `COc1cc(CNC(=O)CSc2cc(=O)n(C)c3ccccc23)cc(OC)c1OC`: the IC50 was > 10 µM (inactive).
Regarding `COc1ccc(CCNC(=O)Cn2cccc2C(=O)c2ccccc2C)cc1OC`, the IC50 was > 10 µM (inactive).
Regarding `CCOc1ccc(CCNC(=O)COC(=O)c2cc(OC)cc(OC)c2)cc1OCC`, the IC50 is 1.09 µM.
Consider `CCn1c(C(=O)NCc2ccc(OC)c(OC)c2)cc2ccsc21`, for which the IC50 was > 10 µM (inactive).
On to `CCOc1ccc(CCNC(=O)CN2C(=O)c3cccnc3Oc3ccc(C)cc32)cc1OCC`, for which the IC50 was 0.13 µM.
Turning to `CCOc1ccc(CCNC(=O)CCC(=O)N2CCSc3ccccc32)cc1OCC`, the IC50 is 0.0693 µM.
As for `CCOc1ccc(CCNC(=O)c2cc3sccc3n2C)cc1OCC`, the IC50 was 0.124 µM.
For the compound `CCOc1ccc(CCNC(=O)COC(=O)c2cc(OC)c(OC)c(OC)c2)cc1OCC`, the IC50 is 0.104 µM.
Regarding `CCOc1ccc(CCNC(=O)c2nnc(Cc3ccc(F)cc3)o2)cc1OCC`, the IC50 is 0.348 µM.
On to `CCn1c(C(=O)Nc2ccc(OC)c(OC)c2)cc2sccc21`, for which the IC50 is > 10 µM (inactive).
The value for `CCOc1ccc(CCNC(=O)c2cc3ccsc3n2C)cc1OC` was 1.09 µM; that for `O=C(NCCc1ccc2c(c1)OCO2)c1cc(-c2ccccc2)c(N2CCOCC2)s1` was 3.26 µM; that for `CCn1c(C(=O)NCCc2ccc(OC)c(OC)c2)cc2ccsc21` was 2.15 µM.
Consider `Cn1c(C(=O)NCCc2ccc3c(c2)OCO3)cc2ccccc21`, for which the IC50 was > 10 µM (inactive).
As to `CCOc1ccc(CCNC(=O)CCOc2cc(C)ccc2C)cc1OCC`, the IC50 is 0.0678 µM.
As for `CCOc1ccc(CCNC(=O)c2cc(-c3ccccc3)c(N3CCOCC3)s2)cc1OC`, the IC50 is 0.0216 µM.
Consider `CCOc1ccc(CCNC(=O)CSc2cc(=O)n(CC)c3ccccc23)cc1OCC`, for which the IC50 is 0.987 µM.
With `Cn1c(C(=O)NCc2ccc3c(c2)OCO3)cc2ccsc21`, the IC50 was > 10 µM (inactive).
The value for `CCn1c(C(=O)NCCc2ccc(OC)c(OC)c2)cc2sc(Cl)cc21` was 1.35 µM; that for `Cn1c(=O)cc(SCC(=O)NCc2ccc3c(c2)OCO3)c2ccccc21` was > 10 µM (inactive); that for `CCOc1ccc(CCNC(=O)CCc2nnc3ccc(N4CCCC4)nn23)cc1OCC` was 0.771 µM.
Turning to `CCOc1ccc(CCNC(=O)c2cc3sccc3n2CC)cc1OC`, the IC50 is 0.261 µM.
`COc1ccc(CCNC(=O)c2cc3sc(Cl)cc3n2C)cc1OC`: the IC50 was 7.02 µM (inactive).
With `CCOc1ccc(CCNC(=O)c2ccc(N3CCOCC3)s2)cc1OCC` the figure was 0.384 µM; with `CCOc1cc(CCNC(=O)CSc2cc(=O)n(C)c3ccccc23)ccc1OC`, 6.38 µM (inactive); with `CCOc1ccc(CCNC(=O)CCc2nc(-c3ccc(OC)cc3)no2)cc1OCC`, 0.206 µM.
Turning to `CCOc1ccc(CCNC(=O)c2cc3sccc3[nH]2)cc1OCC`, the IC50 was 0.639 µM.
As for `COc1ccc(CCNC(=O)c2cc(-c3ccccc3)c(N3CCOCC3)s2)c(OC)c1OC`, the IC50 was 0.0883 µM.
For the compound `COc1ccc(CCNC(=O)CSc2cc(=O)n(C)c3ccccc23)cc1OC`, the IC50 is > 10 µM (inactive).
For `CCOc1ccc(CCNC(=O)COc2cc(=O)n(C)c3ccccc23)cc1OCC`, the IC50 was 0.945 µM.
With `COc1cc(CNC(=O)c2cc3ccsc3n2C)cc(OC)c1OC`, the IC50 is > 10 µM (inactive).
With `CCn1c(C(=O)NCc2ccc3c(c2)OCO3)cc2sccc21` the figure was > 10 µM (inactive); with `CCOc1ccc(CCNC(=O)CSc2cc(=O)n(C)c3cc(Cl)ccc23)cc1OCC`, 0.504 µM; with `O=C(NCCc1ccc2c(c1)OCO2)c1cc2sccc2[nH]1`, > 10 µM (inactive).
The value for `Cn1c(C(=O)Nc2ccc3c(c2)OCO3)cc2ccsc21` was > 10 µM (inactive).
On to `CCn1c(C(=O)NCc2cc(OC)c(OC)c(OC)c2)cc2sccc21`, for which the IC50 is 4.82 µM.
The value for `CCOc1ccc(CCNC(=O)Cn2cccc2C(=O)c2ccccc2)cc1OCC` was 0.418 µM; that for `CCOc1ccc(CCNC(=O)c2cc(-c3ccccc3)c(N3CCOCC3)s2)cc1OCC` was 0.0061 µM and 0.00639 µM; that for `CCOc1cc(CCNC(=O)c2cc3ccsc3n2C)ccc1OC` was 0.641 µM.
With `COc1ccc(CCNC(=O)COC(=O)c2cc(OC)c(OC)cc2OC)cc1OC`, the IC50 was > 10 µM (inactive).
In the case of `O=C(NCCc1ccc2c(c1)OCO2)c1ccc(N2CCOCC2)s1`, the IC50 is > 10 µM (inactive).
As to `CCn1c(C(=O)Nc2ccc3c(c2)OCO3)cc2sccc21`, the IC50 is > 10 µM (inactive).
As to `CCOc1ccc(CCNC(=O)COC(=O)c2ccc(OC)c(OC)c2OC)cc1OCC`, the IC50 is 0.0375 µM.
`CCn1c(C(=O)Nc2ccc(OC)c(OC)c2)cc2ccsc21`: the IC50 was > 10 µM (inactive).
Consider `COc1ccc(NC(=O)c2cc3ccsc3n2C)cc1OC`, for which the IC50 is > 10 µM (inactive).
With `COc1ccc(CNC(=O)c2ccc(N3CCOCC3)s2)cc1OC` the figure was > 10 µM (inactive).
`CCOc1ccc(CCNC(=O)CN2CCN(Cc3ccccc3C)C2=O)cc1OCC`: the IC50 is 0.344 µM.
As for `CCOc1ccc(CCNC(=O)Cn2ncn3nc(-c4ccc(OC)cc4)cc3c2=O)cc1OCC`, the half-maximal inhibitory concentration (IC50) is 0.129 µM.
With `CCOc1ccc(CCNC(=O)c2cc3ccccc3n2C)cc1OC` the figure was 0.804 µM; with `COc1ccc(CNC(=O)c2cc3ccsc3n2C)cc1OC`, > 10 µM (inactive); with `COc1ccc(CNC(=O)c2cc(-c3ccccc3)c(N3CCOCC3)s2)cc1OC`, 0.101 µM.
With `CCOc1ccc(CCNC(=O)C2CC=CCC2C(=O)OC(C)C)cc1OCC` (stereo not drawn), the IC50 was 0.26 µM.
Regarding `COc1ccc(CCNC(=O)c2cc3sccc3n2C)cc1OC`, the IC50 is 8.37 µM (inactive).
Consider `COc1ccc(CNC(=O)CSc2cc(=O)n(C)c3ccccc23)cc1OC`, for which the IC50 is > 10 µM (inactive).
On to `CCn1c(C(=O)NCc2cc(OC)c(OC)c(OC)c2)cc2ccsc21`, for which the IC50 is 3.02 µM.
Regarding `CCOc1ccc(CCNC(=O)c2cc3sc(Cl)cc3n2C)cc1OCC`, the IC50 was 0.0697 µM.
In the case of `CCOc1cc(CCNC(=O)c2cc(-c3ccccc3)c(N3CCOCC3)s2)ccc1OC`, the IC50 is 0.0428 µM.
Consider `CCOc1ccc(CCNC(=O)c2cc3ccsc3n2CC)cc1OCC`, for which the IC50 is 0.0779 µM.
As for `CCOc1ccc(CCNC(=O)CCC(=O)N2CCOc3ccccc32)cc1OCC`, the half-inhibitory concentration (IC50) is 0.199 µM.
